# In US10575752B2, “System and method for determination of a brainstem response state development” (SensoDetect AB, priority 2010, dated 2020):
# System: brainstem
# Experiment: Test of the effect of oral methylphenidate on evoked averaged brainstem response in a patient with ADHD
# Type: in vivo, human
# Description: To emphasize the importance of using the subject as its own reference when conducting herein described tests, FIG. 8a-c is showing a test of the effect of oral methylphenidate medication in a patient with ADHD. In this test each of the train of sound pulses will repeatedly present sound pulses to the patient for thirty seconds and for each sound pulse presented to the subject a corresponding response signal is recorded. The response signal for each set of train of sound pulses is then averaged to obtain an evoked averaged brainstem response.
# In FIG. 8a, a measuring with only unmodified sound pulses, i.e. the sound stimuli comprising only one train being a train of unmodified sound pulses 72. Sound stimuli were presented twice to the subject (at t0+0 and t0+60 sec) and the corresponding response signals were recorded and evoked averaged brainstem responses were established 74a, 74b. This was done when the patient was not under influence of methylphenidate medication, i.e. baseline or control state. The measured variable is here an absolute value 70 measured in μV of the amplitude of peak III. […] Both times the corresponding response signals were recorded and evoked averaged brainstem responses were established 74c, 74d.
# In FIG. 8b, a measuring with only modified sound pulses, i.e. the sound stimuli comprising only one train being a train of modified sound pulses 73. Sound stimuli were presented twice to the subject (at t0+0 and t0+60 sec) and the corresponding response signals were recorded and evoked averaged brainstem responses were established 75a, 75b. This was done when the patient was not under influence of methylphenidate medication, i.e. baseline or control state. The measured variable is here an absolute value 71 measured in NV of the amplitude of peak III. […] Both times the corresponding response signals were recorded and evoked averaged brainstem responses were established 75c, 75d. […]
structure (smiles),measurement,setting,value
COC(=O)C(c1ccccc1)C1CCCCN1 (stereo not drawn) [methylphenidate],"methylphenidate effect on amplitude of peak III (absolute value), only modified sound pulses","single train of modified sound pulses, t1+0 and t1+60 sec vs drug-free baseline, FIG. 8b",no detectable methylphenidate effect could be established
same,"methylphenidate effect on amplitude of peak III (absolute value), only unmodified sound pulses","single train of unmodified sound pulses, t1+0 and t1+60 sec vs drug-free baseline, FIG. 8a",no detectable methylphenidate effect could be established
same,methylphenidate effect on relative measure (modified train averaged evoked brainstem response as a percentage of the unmodified average evoked response),"unmodified train followed by modified train, compared at t1+60 sec and t1+120 sec vs drug-free baseline, FIG. 8c",detectable methylphenidate effect could be seen
